Holding throughout (test): Eurofins kinase panel
What all share (type): biochemical
Conditions in all cases: read-out: Inhibition rate (%)

The target of one assay is T1, MEK1(h) (Homo sapiens, UniProt Q02750).
T1 construct: purchased Eurofins (KinaseProfiler)

In a further assay the target is T2, CLK4(h) (Homo sapiens, UniProt Q9HAZ1).
T2 construct: purchased Eurofins (KinaseProfiler)

The next assay concerns the target T3, MARK4(h) (Homo sapiens, UniProt Q96L34).
T3 construct: purchased Eurofins (KinaseProfiler)
T3 sequence (Q96L34 1-752): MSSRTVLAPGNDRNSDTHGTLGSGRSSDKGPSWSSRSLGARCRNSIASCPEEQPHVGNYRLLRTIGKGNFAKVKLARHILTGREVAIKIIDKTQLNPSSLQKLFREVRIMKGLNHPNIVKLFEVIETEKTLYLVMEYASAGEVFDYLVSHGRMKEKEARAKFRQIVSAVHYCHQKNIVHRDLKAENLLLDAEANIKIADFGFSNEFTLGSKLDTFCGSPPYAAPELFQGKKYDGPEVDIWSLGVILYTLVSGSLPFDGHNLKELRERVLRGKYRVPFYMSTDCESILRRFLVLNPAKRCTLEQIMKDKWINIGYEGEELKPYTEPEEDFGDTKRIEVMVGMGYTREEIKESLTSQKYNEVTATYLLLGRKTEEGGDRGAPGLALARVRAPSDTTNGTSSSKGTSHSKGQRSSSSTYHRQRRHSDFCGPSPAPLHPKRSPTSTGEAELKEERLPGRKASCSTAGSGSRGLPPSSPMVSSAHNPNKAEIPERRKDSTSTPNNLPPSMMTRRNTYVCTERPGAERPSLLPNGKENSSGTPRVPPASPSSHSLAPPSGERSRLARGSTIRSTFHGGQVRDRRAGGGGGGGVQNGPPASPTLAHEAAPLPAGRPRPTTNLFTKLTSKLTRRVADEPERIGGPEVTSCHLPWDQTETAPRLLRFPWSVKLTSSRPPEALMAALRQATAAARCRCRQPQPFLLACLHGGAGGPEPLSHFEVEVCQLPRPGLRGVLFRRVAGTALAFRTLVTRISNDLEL

The target in the next assay is T4, EphB2(h) (Homo sapiens, UniProt P29323).
T4 construct: purchased Eurofins (KinaseProfiler)
T4 sequence (P29323 19-1055): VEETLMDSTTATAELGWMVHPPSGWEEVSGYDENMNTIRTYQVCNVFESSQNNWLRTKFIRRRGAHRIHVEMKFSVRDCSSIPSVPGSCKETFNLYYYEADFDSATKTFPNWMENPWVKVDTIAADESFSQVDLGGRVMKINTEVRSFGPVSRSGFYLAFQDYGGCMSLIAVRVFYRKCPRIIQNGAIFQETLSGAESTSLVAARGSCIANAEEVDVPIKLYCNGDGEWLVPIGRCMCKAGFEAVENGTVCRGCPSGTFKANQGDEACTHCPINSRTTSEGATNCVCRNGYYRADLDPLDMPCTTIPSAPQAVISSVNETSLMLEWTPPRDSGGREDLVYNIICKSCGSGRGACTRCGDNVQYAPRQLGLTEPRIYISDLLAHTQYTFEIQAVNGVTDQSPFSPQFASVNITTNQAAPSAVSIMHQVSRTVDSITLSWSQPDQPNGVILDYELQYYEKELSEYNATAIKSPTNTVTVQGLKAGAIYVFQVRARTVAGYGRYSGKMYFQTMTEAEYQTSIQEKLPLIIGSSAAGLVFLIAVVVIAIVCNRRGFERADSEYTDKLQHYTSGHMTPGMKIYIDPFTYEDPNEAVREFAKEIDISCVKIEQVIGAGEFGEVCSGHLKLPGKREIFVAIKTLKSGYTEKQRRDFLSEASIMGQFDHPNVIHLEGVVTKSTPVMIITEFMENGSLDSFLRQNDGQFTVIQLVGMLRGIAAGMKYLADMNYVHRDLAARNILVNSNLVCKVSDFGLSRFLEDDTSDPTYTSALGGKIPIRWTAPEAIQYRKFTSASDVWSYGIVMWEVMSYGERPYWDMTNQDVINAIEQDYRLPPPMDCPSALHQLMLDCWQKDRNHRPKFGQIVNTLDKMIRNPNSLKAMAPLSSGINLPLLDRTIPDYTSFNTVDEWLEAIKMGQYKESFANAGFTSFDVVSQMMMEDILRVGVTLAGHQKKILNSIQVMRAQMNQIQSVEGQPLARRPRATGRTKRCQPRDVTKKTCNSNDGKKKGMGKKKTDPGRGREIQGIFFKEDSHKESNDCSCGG

The next assay deals with T5, VRK2(h) (Homo sapiens, UniProt Q86Y07).
T5 construct: purchased Eurofins (KinaseProfiler)
T5 sequence (Q86Y07 whole entry): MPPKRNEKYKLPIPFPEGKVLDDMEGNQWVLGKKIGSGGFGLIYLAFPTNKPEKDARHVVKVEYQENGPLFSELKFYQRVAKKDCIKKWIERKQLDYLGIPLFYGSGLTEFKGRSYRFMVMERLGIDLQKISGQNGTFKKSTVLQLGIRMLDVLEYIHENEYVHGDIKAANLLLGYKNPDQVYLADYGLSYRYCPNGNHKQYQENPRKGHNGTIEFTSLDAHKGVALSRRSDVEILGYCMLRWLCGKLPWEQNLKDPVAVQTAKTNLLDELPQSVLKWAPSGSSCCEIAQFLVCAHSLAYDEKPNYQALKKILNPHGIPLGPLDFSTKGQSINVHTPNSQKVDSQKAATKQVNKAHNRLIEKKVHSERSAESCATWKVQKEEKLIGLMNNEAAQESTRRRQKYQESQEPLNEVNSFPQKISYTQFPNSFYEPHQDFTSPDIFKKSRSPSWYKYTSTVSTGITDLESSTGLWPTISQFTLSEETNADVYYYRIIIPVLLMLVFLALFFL

This is an account of results in publication PMC6704710, “Preclinical evaluation of 3D185, a novel potent inhibitor of FGFR1/2/3 and CSF-1R, in FGFR-dependent and macrophage-dominant cancer models” (Journal of Experimental & Clinical Cancer Research : CR, 2019).

T1 sequence (Q02750 whole entry): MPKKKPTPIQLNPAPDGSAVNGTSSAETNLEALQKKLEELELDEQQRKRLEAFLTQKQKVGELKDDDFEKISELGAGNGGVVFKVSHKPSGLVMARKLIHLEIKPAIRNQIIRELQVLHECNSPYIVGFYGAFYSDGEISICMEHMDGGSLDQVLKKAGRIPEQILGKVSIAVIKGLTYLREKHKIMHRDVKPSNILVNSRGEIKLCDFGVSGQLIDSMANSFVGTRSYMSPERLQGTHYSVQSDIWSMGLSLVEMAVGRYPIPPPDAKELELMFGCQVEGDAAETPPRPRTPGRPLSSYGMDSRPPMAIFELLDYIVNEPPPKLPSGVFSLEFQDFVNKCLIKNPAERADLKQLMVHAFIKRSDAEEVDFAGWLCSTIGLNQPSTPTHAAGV
T2 sequence (Q9HAZ1 whole entry): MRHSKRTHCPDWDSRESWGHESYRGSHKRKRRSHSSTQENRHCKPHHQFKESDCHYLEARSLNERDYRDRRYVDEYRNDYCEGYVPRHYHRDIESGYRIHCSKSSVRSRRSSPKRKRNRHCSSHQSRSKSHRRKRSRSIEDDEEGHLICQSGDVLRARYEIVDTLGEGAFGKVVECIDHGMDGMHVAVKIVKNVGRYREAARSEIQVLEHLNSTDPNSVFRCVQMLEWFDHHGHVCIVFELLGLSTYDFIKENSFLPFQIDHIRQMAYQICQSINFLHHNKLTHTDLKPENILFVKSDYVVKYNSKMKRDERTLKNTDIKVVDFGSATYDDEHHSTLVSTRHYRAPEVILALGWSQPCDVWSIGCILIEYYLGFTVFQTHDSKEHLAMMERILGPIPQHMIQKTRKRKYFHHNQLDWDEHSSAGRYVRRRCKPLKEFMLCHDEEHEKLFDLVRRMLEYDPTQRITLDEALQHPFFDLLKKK

A word on the inhibition: it is the relative decrease from the control value, in per cent. In the case of `COc1cc(OC)c(Cl)c(-c2ccc3c(NC(=O)c4ccc(N5CCNC(C)(C)C5)cc4)n[nH]c3n2)c1Cl` [3D185], the inhibition at 0.01 µM turned out to be 10% at MEK1(h) (10 nM); 5% on CLK4(h) (10 nM); 3% at MARK4(h) (10 nM); 12% on EphB2(h) (10 nM); 4% on VRK2(h) (10 nM). Also, the inhibition at 0.1 µM on MEK1(h) (100 nM) is 14%; at CLK4(h) (100 nM) it was 19%; on MARK4(h) (100 nM) it was 5%; at EphB2(h) (100 nM) it was 6%; on VRK2(h) (100 nM) it was 11%. Also, the inhibition at 1 µM on MEK1(h) (1000 nM) is 8%; on CLK4(h) (1000 nM) it was 27%; at MARK4(h) (1000 nM), -2%; at EphB2(h) (1000 nM), 15%; on VRK2(h) (1000 nM) it was 17%.
